Laboratory results as given in patent US8906928B2, “Substituted pyrazolo-pyrrolo-pyridine-dione compounds” (ArQule, Inc., priority 2009, dated 2014).

Columns and labels:
Format in all cases: cell-based
DLD-1 = assay: MTS assay (cell growth inhibition), DLD-1; conditions: DLD-1 cells, 72 hours incubation with test compound; concentration not given
Experimental: (§1) Cells were maintained at 37° C., 5% CO2 in DMEM media supplemented with 1% fetal bovine serum, penicillin/streptomycin and fungizone (Invitrogen). Cells were seeded into 96-well tissue culture plates at 3000 per well and cultured at 37° C. for 18 hours. Test compounds were dissolved and diluted to 300× in DMSO then diluted 1:40 in DMEM. Cells were incubated with test compounds for 72 hours followed by incubation with tetrazolium compound (3-(4,5-dimethylthiazol-2-yl)-5-(3-carboxymethoxyphenyl)-2-(4-sulfophenyl)-2H-tetrazolium, inner salt; MTS) and the electron coupling reagent, phenazine methosulfate (PMS) for 4 hours. […] The ability of compounds to inhibit cell growth in this assay is correlated with the reduction of dehydrogenase enzyme activity found in metabolically active cells. The measurement of the absorbance of the formazan was assessed using an ENVISION™ (Perkin Elmer) microplate reader at 492 nm. The calculated IC50 value is the concentration of the test compound that causes a 50% decrease in the absorbance.

Kato III = assay: MTS assay (cell growth inhibition), Kato III; conditions: Kato III cells, 72 hours incubation with test compound; concentration not given
Experimental: as §1

MDA-MB = assay: MTS assay (cell growth inhibition), MDA-MB; conditions: MDA-MB cells, 72 hours incubation with test compound; concentration not given
Experimental: as §1

NCI-H1299 = assay: MTS assay (cell growth inhibition), NCI-H1299; conditions: NCI-H1299 cells, 72 hours incubation with test compound; concentration not given
Experimental: as §1

PACA-2 = assay: MTS assay (cell growth inhibition), PACA-2; conditions: PACA-2 cells, 72 hours incubation with test compound; concentration not given
Experimental: as §1

PC-3 = assay: MTS assay (cell growth inhibition), PC-3; conditions: PC-3 cells, 72 hours incubation with test compound; concentration not given
Experimental: as §1

SMILES	MTS CELL KILL DATA (% INHIBITION) DLD-1 (DLD-1)	MTS CELL KILL DATA (% INHIBITION) Kato III (Kato III)	MTS CELL KILL DATA (% INHIBITION) MDA-MB (MDA-MB)	MTS CELL KILL DATA (% INHIBITION) NCI-H1299 (NCI-H1299)	MTS CELL KILL DATA (% INHIBITION) PACA-2 (PACA-2)	MTS CELL KILL DATA (% INHIBITION) PC-3 (PC-3)
Cc1ccc(CCN2C(=O)c3cnc4[nH]ncc4c3C2=O)cc1 [Example 69, 7-[2-(4-methylphenyl)ethyl]pyrazolo[3,4-b]pyrrolo[3,4-d]pyridine-6,8(3H,7H)-dione]	C (C = <50% INHIBITION)	C (C = <50% INHIBITION)	C (C = <50% INHIBITION)	C (C = <50% INHIBITION)	C (C = <50% INHIBITION)	C (C = <50% INHIBITION)
O=C1c2cnc3[nH]ncc3c2C(=O)N1Cc1cccnc1 [Example 38, 7-(pyridin-3-ylmethyl)pyrazolo[3,4-b]pyrrolo[3,4-d]pyridine-6,8(3H,7H)-dione]	A (A = 80-100% INHIBITION)	A (A = 80-100% INHIBITION)	A (A = 80-100% INHIBITION)	C (C = <50% INHIBITION)	A (A = 80-100% INHIBITION)	C (C = <50% INHIBITION)
O=C1c2cnc3[nH]ncc3c2C(=O)N1Cc1c(F)ccc(Cl)c1Cl [Example 97, 7-(2,3-dichloro-6-fluorobenzyl)pyrazolo[3,4-b]pyrrolo[3,4-d]pyridine-6,8(3H,7H)-dione]	C (C = <50% INHIBITION)	C (C = <50% INHIBITION)	C (C = <50% INHIBITION)	C (C = <50% INHIBITION)	C (C = <50% INHIBITION)	C (C = <50% INHIBITION)
O=C1c2cnc3[nH]ncc3c2C(=O)N1CC1CCOC1 (stereo not drawn) [Example 85, 7-(tetrahydrofuran-3-ylmethyl)pyrazolo[3,4-b]pyrrolo[3,4-d]pyridine-6,8(3H,7H)-dione]	C (C = <50% INHIBITION)	C (C = <50% INHIBITION)	C (C = <50% INHIBITION)	C (C = <50% INHIBITION)	C (C = <50% INHIBITION)	C (C = <50% INHIBITION)
CCCCOc1ccc(CN2C(=O)c3cnc4[nH]ncc4c3C2=O)cc1 [Example 15, 7-(4-butoxybenzyl)pyrazolo[3,4-b]pyrrolo[3,4-d]pyridine-6,8(3H,7H)-dione]	C (C = <50% INHIBITION)	C (C = <50% INHIBITION)	A (A = 80-100% INHIBITION)	C (C = <50% INHIBITION)	C (C = <50% INHIBITION)	B (B = 50-79% INHIBITION)
O=C1c2cnc3[nH]ncc3c2C(=O)N1Cc1cccc(I)c1 [Example 101, 7-(3-iodobenzyl)pyrazolo[3,4-b]pyrrolo[3,4-d]pyridine-6,8(3H,7H)-dione]	B (B = 50-79% INHIBITION)	A (A = 80-100% INHIBITION)	A (A = 80-100% INHIBITION)	C (C = <50% INHIBITION)	C (C = <50% INHIBITION)	A (A = 80-100% INHIBITION)
CC(=O)Nc1cccc(-c2n[nH]c3ncc4c(c23)C(=O)N(CCc2ccccc2)C4=O)c1 [Example 167, N-{3-[6,8-dioxo-7-(2-phenylethyl)-3,6,7,8-tetrahydropyrazolo[3,4-b]pyrrolo[3,4-d]pyridin-1-yl]phenyl}acetamide]	A (A = 80-100% INHIBITION)	A (A = 80-100% INHIBITION)	A (A = 80-100% INHIBITION)	A (A = 80-100% INHIBITION)	A (A = 80-100% INHIBITION)	A (A = 80-100% INHIBITION)
CC(C)OCCN1C(=O)c2cnc3[nH]ncc3c2C1=O [Example 16, 7-(2-isopropoxyethyl)pyrazolo[3,4-b]pyrrolo[3,4-d]pyridine-6,8(3H,7H)-dione]	C (C = <50% INHIBITION)	C (C = <50% INHIBITION)	B (B = 50-79% INHIBITION)	C (C = <50% INHIBITION)	B (B = 50-79% INHIBITION)	C (C = <50% INHIBITION)
Cc1ccc2c(c1)N(CCN1C(=O)c3cnc4[nH]ncc4c3C1=O)C(C)(C)CC2C (stereo not drawn) [Example 29, 7-[2-(2,2,4,7-tetramethyl-3,4-dihydroquinolin-1(2H)-yl)ethyl]pyrazolo[3,4-b]pyrrolo[3,4-d]pyridine-6,8(3H,7H)-dione]	C (C = <50% INHIBITION)	C (C = <50% INHIBITION)	A (A = 80-100% INHIBITION)	C (C = <50% INHIBITION)	A (A = 80-100% INHIBITION)	A (A = 80-100% INHIBITION)
O=C1c2cnc3[nH]ncc3c2C(=O)N1Cc1ccccc1I [Example 111, 7-(2-iodobenzyl)pyrazolo[3,4-b]pyrrolo[3,4-d]pyridine-6,8(3H,7H)-dione]	C (C = <50% INHIBITION)	C (C = <50% INHIBITION)	C (C = <50% INHIBITION)	C (C = <50% INHIBITION)	C (C = <50% INHIBITION)	C (C = <50% INHIBITION)
CC(CCN1C(=O)c2cnc3[nH]ncc3c2C1=O)c1ccccc1 (stereo not drawn) [Example 53, 7-(3-phenylbutyl)pyrazolo[3,4-b]pyrrolo[3,4-d]pyridine-6,8(3H,7H)-dione]	C (C = <50% INHIBITION)	C (C = <50% INHIBITION)	A (A = 80-100% INHIBITION)	C (C = <50% INHIBITION)	A (A = 80-100% INHIBITION)	A (A = 80-100% INHIBITION)
O=C1c2cnc3[nH]ncc3c2C(=O)N1Cc1ccc(F)c(F)c1F [Example 20, 7-(2,3,4-trifluorobenzyl)pyrazolo[3,4-b]pyrrolo[3,4-d]pyrindine-6,8(3H,7H)-dione]	C (C = <50% INHIBITION)	C (C = <50% INHIBITION)	A (A = 80-100% INHIBITION)	C (C = <50% INHIBITION)	C (C = <50% INHIBITION)	A (A = 80-100% INHIBITION)
Cc1cccc(OCCN2C(=O)c3cnc4[nH]ncc4c3C2=O)c1 [Example 13, 7-[2-(3-methylphenoxy)ethyl]pyrazolo[3,4-b]pyrrolo[3,4-d]pyridine-6,8(3H,7H)-dione]	C (C = <50% INHIBITION)	A (A = 80-100% INHIBITION)	A (A = 80-100% INHIBITION)	B (B = 50-79% INHIBITION)	C (C = <50% INHIBITION)	A (A = 80-100% INHIBITION)
